Results taken from patent US10787643B2, “Methods, kits, and compositions for stem cell self-renewal” (Stowers Institute for Medical Research, priority 2007, dated 2020).

Assays:
LSK Flk2− cells [1] = assay: Transplantation of cultured sorted LSK Flk2− cells into lethally irradiated CD45.1+ recipient mice with competitor cells; assay type: in vivo, mouse; conditions: 1000 re-sorted LSK Flk2− cells from 28 day cultures; peripheral blood at 4 weeks post-transplant
Text: Cells were harvested from the wells prior to transplantation by pipetting up and down several times before transferring to a fresh tube. Residual was then collected by adding more media and repeating. Cells were washed in DMEM (Invitrogen, Cat. No. 31053) without phenol red and added to the appropriate number of whole bone marrow rescue cells from a congenic donor (for 200,000 rescue cells+1,000 re-sorted LSK Flk2^− cells (FIGS. 3F-3H) or the non-adherent product of 10 days culture of 100 LSK Flk2^− cultured cells (FIGS. 3I-3K) per mouse as indicated). […]
Repopulation was measured at 4 weeks post-transplant by collection of periperal blood, red blood cell lysis, and staining of CD45.1 (recipient) compared to CD45.2 (donor) engraftment using antibodies purchased from eBiosciences (FITC conjugated CD45.2 (Cat. No. 11-0454-85) and PE-Cy5 conjugated CD45.1 (Cat. No. 15-0453-82)). […] Multi-lineage reconstitution was determined by CD3, B220 (for lymphoid) and Gr1, Mac-1 (for myeloid), as described above.
Cells cultured for 28 days in (1) media, (2) media+BpV(pic), (3) media+CHIR99021 and (4) media+CHIR99021 (1 μM)+BpV(pic) (200 nM) were re-sorted for LSK Flk2^− cells. […] At 4 weeks post-transplant, peripheral blood was analyzed for donor (FIG. 3G) and multi-lineage (FIG. 3H) engraftment. […]

LSK Flk2− cells [2] = assay: Transplantation of ex vivo expanded MNCs without competitor/radioprotective cells, with serial (secondary) transplantation; assay type: in vivo, mouse
Experimental: For this experiment, MNCs with a known quantity of putative HSCs were cultured with and without CHIR99021 for 14 days. After 14 days, the cellular product of these cultures was transplanted into lethally-irradiated recipients at a dosage corresponding to an original input into culture of MNCs containing 5 LSKF^− cells per mouse. Freshly isolated MNCs containing either 5 or 500 LSKF− cells were also transplanted into 2 additional lethally irradiated groups of mice. No rescue/competitor bone marrow cells were included.
At 16 weeks post-transplant, mice transplanted with MNCs containing 5 or 500 LSKF^− cells freshly isolated or cultured for 14 days described in FIGS. 6A-6D were sacrificed and bone marrow isolated. A secondary transplantation was performed on new groups of lethally irradiated mice by transplanting 1×10^6 bone marrow cells from the original transplant group per mouse. At 4 weeks post-transplant, peripheral blood was collected from each transplant recipient and donor-derived repopulation was determined.

LSK Flk2− cells [3] = assay: Bone marrow MNC culture in HSC expansion media with CHIR99021 and PI3K inhibitor, FACS for LSK Flk2− expansion (FIG. 21); assay type: cell-based, mouse; conditions: for Expansion of LSK Flk2− cells: bone marrow MNCs cultured 10 days in ST media, 250 nM CHIR99021 or indicated concentrations of NVP-BEZ235
Experimental: Bone marrow MNCs were cultured for 10 days in an HSC expansion media with and without 250 nM CHIR99021, along with the indicated concentrations of PI3K inhibitor ([…]. et al. Identification and characterization of NVP-BEZ235, a new orally available dual phosphatidylinositol 3-kinase/mammalian target of rapamycin inhibitor with potent in vivo antitumor activity. (Molecular cancer therapeutics 7, 1851-1863 (2008)), and then subjected to FACS analysis to determine expansion of LSK Flk2^- cells. The inventors have developed a defined culture system utilizing only two cytokines, stem cell factor (SCF) and thrombopoietin (Tpo) (ST media), which have been shown previously to support HSC expansion in vitro (Zhang, […]. Murine hematopoietic stem cells change their surface phenotype during ex vivo expansion. Blood 105, 4314-4320 (2005)). […] Also, the ability of CHIR99021 to enhance expansion was negated by PI3K inhibition (FIG. 21).

LSK Flk2− cells [4] = assay: Ex vivo culture of sorted LSK Flk2− cells with PTEN and/or GSK-3β inhibitors; assay type: cell-based, mouse; conditions: for Expansion of LSK cells compared to control (photographs): 17 and 23 days culture, 1 μM CHIR99021, 200 nM BpV(pic); for Expansion of LSK Flk2− cells compared to media without either inhibitor: 28 days culture, inhibitor added individually
Experimental: LSK or LSK Flk2^− cells were sorted into 96-well U-bottom tissue culture plates at 100 cells/well with 200 μl media/well. Cells were incubated at 37° C., 5% O2, 5% CO2 (balance N2) for the indicated number of days. One-half total volume of media (see Table 1, below for the base media) was carefully pipetted from the top and replaced with fresh media every other day.
One hundred LSK Flk2^− cells were sorted from wild-type (C57Bl/6) mice and cultured in (1) media, (2) media+1 μM CHIR99021 (a GSK-3β inhibitor, a gift from Dr. Sheng Ding), (3) media+200 nM Dipotassium Bis-peroxo(picolinato)oxovanadate (BpV(pic), a PTEN inhibitor, available from Calbiochem, Cat. No. 203705), (4) media+1 μM CHIR99021+200 nM BpV(pic), (5) media+200 nM Shikonin (also a PTEN inhibitor, available from Calbiochem, Cat. No. 565850), and (6) media+200 nM Shikonin+1 μM CHIR99021. […] Cells were cultured as described above. […] Cells were examined at 17 days of culture (FIG. 3B, original magnification 100×) and 23 days (FIG. 3C, original magnification 40×).
LSK Flk2^− cells at 28 days culture in the indicated media conditions were examined (FIG. 3D, original magnification 200×).
FACS analysis of 28 day LSK Flk2^− cells cultured in media+BpV(pic)+CHIR99021 (FIG. 3E) was performed. Cells were pre-gated on live, lineage negative cells.
Fold expansion of LSK Flk2^− cells after 28 days culture in (1) media, (2) media+BpV(pic), (3) media+CHIR99021, and (4) media+CHIR99021+BpV(pic) were analyzed.
Cells cultured for 9 days in (1) media, (2) media+BpV(pic) (200 nM), (3) media+CHIR99021 (100 nM), and (4) media+CHIR99021 (100 nM)+BpV(pic) (200 nM) were re-sorted for LSK Flk2^− cells, and fold expansion of LSK Flk2^− cells after 9 days culture in the indicated conditions was determined (FIG. 3I).
FACS analysis was performed on 9 day LSK Flk2^− cells cultured in media+BpV(pic) (200 nM)+CHIR99021 (100 nM) (FIG. 3J). Cells were pre-gated on live, lineage negative cells.

LSK Flk2− cells [5] = assay: Competitive repopulation after 14 days ex vivo expansion of sorted HSCs or unsorted MNCs with or without CHIR99021; assay type: in vivo, mouse; conditions: long-term engraftment, competitor cells present
Experimental: For the experimental results shown in FIG. 13A, sorted LSK Flk2^− cells and unsorted MNCs containing a known quantity of LSK Flk2^− cells (CD45.2^+) were cultured for 14 days in ST media with and without CHIR99021. The cultured product of 100 sorted or 5 unsorted LSK Flk2^− cells per mouse were transplanted into lethally irradiated recipients (CD45.1^+). 5 freshly isolated, unsorted LSK Flk2^− cells per mouse were transplanted into a separate group. 1×10^5 freshly isolated CD45.1^+ competitor/radioprotective cells were also added per mouse. Peripheral blood analysis of recipients at 16 weeks post-transplant depicts % chimerism.
For the experiments set forth in this Example, a particular HSC expansion media was used. […]
Bone marrow cells were harvested from C57Bl/6 (CD45.2) mice and made into a single cell suspension by gently drawing through a 22 g needle several times. […] Cells were counted and a fraction of mononuclear cells (MNCs) were stained for lineage markers using CD3, CD4, CD8, B220, IgM, Mac-1, Gr1, and Ter119 antibodies along with Kit, Sca-1, and Flk2 for mouse HSC analysis or CD34 and CD38 for human HSC analysis. […] Frequency of putative HSCs (lineage negative, Sca-1^+, Kit^+, […] for mouse or CD34^+, CD38^− cells for human) was determined by analyzing >3×10^5 cells per sample independently in triplicate. […]

Row | Compound | Mice showing >1% engraftment (LSK Flk2− cells [1]) | Donor reconstitution (LSK Flk2− cells [2]; 16 weeks post-secondary transplant, MNCs containing 5 LSK Flk2− cells expanded 14 days in ST media with CHIR99021, no competitor cells) [%] | Long-term repopulation equivalent to a greater dose of fresh, unexpanded cells (LSK Flk2− cells [2]; 16 weeks post-secondary transplantation, expanded MNCs with 5 putative HSCs vs fresh MNCs with 500) [fold] | Expansion of LSK Flk2− cells (LSK Flk2− cells [3]) | Expansion of LSK cells compared to control (photographs) (LSK Flk2− cells [4]) | Expansion of LSK Flk2− cells compared to media without either inhibitor (LSK Flk2− cells [4]) | Average repopulation (LSK Flk2− cells [5]; 100 sorted putative HSCs cultured 14 days with CHIR99021 (250 nM)) [%] | Average repopulation (LSK Flk2− cells [5]; unsorted MNC cultures, 14 days with CHIR99021 (250 nM)) [%] | Ability of CHIR99021 to enhance expansion of LSK Flk2− cells (LSK Flk2− cells [3]; PI3K inhibitor added together with 250 nM CHIR99021, 10 days)
1 | Cc1c[nH]c(-c2cnc(NCCNc3ccc(C#N)cn3)nc2-c2ccc(Cl)cc2Cl)n1 [CHIR99021] | 4/8 | 90.6±4.8 | 100 | increased the expansion | greater expansion | significant expansion | 12.3 | 64.8 | 
2 | Cn1c(=O)n(-c2ccc(C(C)(C)C#N)cc2)c2c3cc(-c4cnc5ccccc5c4)ccc3ncc21 [NVP-BEZ235] |  |  |  | decreased the ability of LSK Flk2^− cells to expand in a dose-dependent manner |  |  |  |  | negated
3 | Dipotassium Bis-peroxo(picolinato)oxovanadate [BpV(pic)] | 0/10 |  |  |  | greater expansion | significant expansion |  |  | 
